Test [1] has as its system Plasmodium falciparum strain NF54. Briefly: Growth inhibition of Plasmodium falciparum NF54 (chloroquine-sensitive) in vitro, [G-3H]-hypoxanthin incorporation. The format is cell-based. As to conditions: chloroquine-sensitive strain NF54, 72 h, read-out: IC50 for P. falciparum NF54. From the text:
(§1) The ratio of the growth inhibition of a strain which is especially resistant to chloroquine and of a strain which is sensitive to chloroquine gives as the "resistance index" a measurement for the absence of a cross-resistance with chloroquine. Since, for all novel compounds the resistance index lies between 0.7 and 2.5, they inhibit the growth of sensitive as well as resistant strains of the malaria pathogen equally effectively. They are accordingly also suitable for the prophylaxis of a malaria disease and also for the treatment of a malaria disease even when chloroquine is ineffective. The good activity against malaria pathogens is also shown in animal experiments. The effective doses measured after oral and subcutaneous administration to mice infected with malaria pathogens are shown in Table 2 hereinafter.
(§2) Test method for the determination of the activity against Plasmodium falciparum in vitro
(§3) The preparations are tested on intraerythrocytary stages of Plasmodium falciparum from asynchronous cultures according to the method of Desjardin et al. (Desjardins, R. E. et al: Quantitative assessment of antimalarial activity in vitro by a semiautomated microdilution technique. Antimicrob. Agents Chemother. 16, 710-718, (1979)).
(§4) The culture medium consists of RPMI 1640 with the addition of 25 mM HEPES, 25 mM NaHCO3, 100 μg/ml neomycin and […] (A^+). Human-A^+ erythrocytes are used as the Plasmodium falciparum host cells. The parasites are maintained at 37° C. in an atmosphere of 3% O2, 4% CO2, 93% N2 and 95% relative humidity.
(§5) In order to determine the activity, the preparations are dissolved in DMSO, pre-diluted in the culture medium to a suitable starting concentration and subsequently titrated-out on to microtitre plates in the 2nd stage over 6-7 steps. After the addition of the parasite culture (0.7% parasitemia in 2.5% erythrocyte suspension) the test plates are incubated under the conditions given above for 72 h. The parasite growth in the different preparation concentrations is determined using [G-^3 H]-hypoxanthin incorporation compared to untreated control cultures on the same test plates. The 50% growth inhibition (IC50) is calculated according to logit regression analysis from the resulting dosage-activity curve.
(§6) The preparations are tested on at least one chloroquine-resistant and one chloroquine-sensitive Plasmodium falciparum strain. Additional sensitive and resistant strains are included for further characterization.

A further test concerns Plasmodium berghei. The test can be described thus: animal or person. The format is in vivo, Plasmodium berghei (strain ANKA) in mice. As to conditions: Plasmodium berghei, mice, blood smears 48 h after treatment. On the procedure:
Test method for the determination of the activity against Plasmodium berghei in vivo
The preparations are tested on mice infected with malaria pathogens (Plasmodium berghei). Male albino mice (IBM:MORO(SPF), FUELLINSDORF) weighing about 25 g are used as the test animals. They are kept in climatized rooms at 21-22° C. in groups of 5 animals per cage. They receive ad libitum a diet feed with a low PABA content (NAFAG FUTTER " No. 9009 PAB-45, PABA content 45 mg/kg) and drinking water. On the first day of the test (D0) the test animals are infected with Plasmodium berghei (strain ANKA). For this there is used heparinized blood of a donor mouse with about 30% parasitemia, which is diluted with physiological saline such that it contains 10^8 parasitized erythrocytes per ml. 0.2 ml of this suspension is injected intravenously (i.v.) into the mice to be treated and into the control mice.
The substances to be tested are dissolved or suspended in distilled water or in a mixture of 7% Tween 80, 3% alcohol (96%) and water. Usually, 0.25 ml of this solution or suspension is administered once subcutaneously and perorally to groups of 5 test animals. Treatment is effected 24 hours after the infection. 10 control animals are treated in the same manner with solvent or suspension medium per test.
All substances are tested in a first test in a single dosage of 10 mg/kg. Only those substances which in this test (10 mg/kg) have shown a parasitaemia reduction of 90% are used for the titration. Suitable dilutions of the test substance can be used to obtain an accurate titration of the activity.
48 hours after the treatment (D+3) blood smears are prepared from all animals using blood from tail veins and are stained with giemsa. […] The difference in the average values of the infection rates of control group (100%) and treated groups is calculated and expressed as a percentage reduction (GI%). The ED50 or ED90 is determined mathematically by means of the JMP programme (nonlinear fit). The ED50 (ED90) in mg/kg is that dose which after single administration reduces the average erythrocyte infection rate by 50% (90%) in comparison to the control group.

For a further test, the system named is Plasmodium falciparum K1. Briefly: Growth inhibition of Plasmodium falciparum K1 (chloroquine-resistant) in vitro, [G-3H]-hypoxanthin incorporation. The format is cell-based, Plasmodium falciparum (strain K1). As to conditions: for IC50: Plasmodium falciparum, K1, 72 h, read-out: IC50 for P. falciparum K1; for Resistance index: ratio of the IC50 for K1 and the IC50 for NF54.
Text: as §1, §2, §3, §4, §5, §6

Setting [2] is: po, single peroral dose of 10 mg/kg, read-out: Growth inhibition in % after po administration (GI%, percentage reduction of the parasitemia).
[3] abbreviates: sc, single subcutaneous dose of 10 mg/kg, read-out: Growth inhibition in % after sc administration (GI%, percentage reduction of the parasitemia).

Where two headings read alike, the source gives them in different places.

Among the data in patent publication US5948791A, “Quinoline derivatives for treating malaria” (Hoffmann-La Roche Inc., priority 1995, dated 1999) are IC50, inhibition in vivo and Resistance index values, retold here.

Take `CC(C)(CNc1ccnc2cc(Cl)ccc12)NCc1ccc(Cl)c(F)c1.Cl.Cl` [Example 27, N1-(7-Chloro-quinolin-4-yl)-N2-(4-chloro-3-fluoro-benzyl)-2-methyl-propane-1,2-diamine dihydrochloride]: the IC50 (commonly the concentration needed to halve the response being measured) in test [1] was 0.016 µg/mL; with Plasmodium falciparum K1, 0.0233 µg/mL. In addition, the inhibition in vivo at 10 mg/kg with Plasmodium berghei (setting [2]) was found to be 99%; in the test on Plasmodium berghei (setting [3]), 98%. Further, the Resistance index in the test on Plasmodium falciparum K1 stood at 1.5.

For `COc1ccc(OC)c(CCN[C@H]2CC[C@H](Nc3ccnc4cc(Cl)ccc34)CC2)c1.Cl.Cl` [Example 97, trans-N1-(7-Chloro-quinolin-4-yl)-N4-[2-(2,5-dimethoxy-phenyl)-ethyl]-cyclohexane-1,4-diamine dihydrochloride], the IC50 in test [1] is 0.0041 µg/mL; with Plasmodium falciparum K1, 0.0178 µg/mL. Further, the inhibition in vivo at 10 mg/kg in the test with Plasmodium berghei (setting [2]) was 49%; with Plasmodium berghei (setting [3]), 99%. In the test with Plasmodium falciparum K1, the Resistance index is 4.3.

Regarding `COc1ccc(CN[C@H]2CC[C@H](Nc3ccnc4cc(Cl)ccc34)CC2)c(OC)c1.Cl.Cl` [Example 111, trans-N1 (7-Chloro-quinolin-4-yl)-N4-(2,4-dimethoxy-benzyl)-cyclohexane-1,4-diamine dihydrochloride], the IC50 was found to be 0.0029 µg/mL in test [1] and 0.0104 µg/mL in the test with Plasmodium falciparum K1. In addition, the results for the inhibition in vivo at 10 mg/kg with Plasmodium berghei (setting [2]) and with Plasmodium berghei (setting [3]) were 25% and 99.8%, respectively. Further, the Resistance index in the test with Plasmodium falciparum K1 is given as 3.6.

For `Cl.Cl.Clc1ccc(CN[C@H]2CC[C@@H](Nc3ccnc4cc(Cl)ccc34)CC2)cc1` [Example 72, cis-N1-(7-Chloro-quinolin-4-yl)-N4-(4-chloro-benzyl)-cyclohexane-1,4-diamine dihydrochloride], the IC50 in test [1] came to 0.0116 µg/mL; with Plasmodium falciparum K1 it was 0.0112 µg/mL. The inhibition in vivo at 10 mg/kg with Plasmodium berghei (setting [2]) is 99.5%; with Plasmodium berghei (setting [3]), 99.9%. Further, in the test with Plasmodium falciparum K1, the Resistance index was found to be 1.0.

Take `Cl.Cl.O=[N+]([O-])c1ccc(CCN[C@H]2CC[C@H](Nc3ccnc4cc(Cl)ccc34)CC2)cc1` [Example 93, trans-N1-(7-Chloro-quinolin-4-yl)-N4-[2-(4-nitro-phenyl)-ethyl]-cyclohexane-1,4-diamine dihydrochloride]: the IC50 in test [1] was found to be 0.0034 µg/mL; in the test on Plasmodium falciparum K1, 0.0083 µg/mL. Besides, the results for the inhibition in vivo at 10 mg/kg in the test with Plasmodium berghei (setting [2]) and with Plasmodium berghei (setting [3]) were 98% and 99%, respectively. The Resistance index with Plasmodium falciparum K1 is 2.4.

On to `Cl.Cl.FC(F)(F)c1cc(CN[C@H]2CC[C@@H](Nc3ccnc4cc(Cl)ccc34)CC2)cc(C(F)(F)F)c1` [Example 77, cis-N1-(7-Chloro-quinolin-4-yl)-N4-(3,5-bis-trifluoromethyl-benzyl)-cyclohexane-1,4-diamine dihydrochloride], for which the IC50 in test [1] is 0.0966 µg/mL; in the test on Plasmodium falciparum K1 it was 0.0632 µg/mL. Besides, the values for the inhibition in vivo at 10 mg/kg with Plasmodium berghei (setting [2]) and with Plasmodium berghei (setting [3]) were 99% and 98%, respectively. For the same compound, in the test on Plasmodium falciparum K1, the Resistance index was 0.7.

Regarding `CN(C)c1ccc(CNC(C)(C)CNc2ccnc3cc(Cl)ccc23)cc1.Cl.Cl` [Example 45, N1-(7-Chloro-quinolin-4-yl)-N2-(4-dimethylamino-benzyl)-2-methyl-propane-1,2-diamine dihydrochloride], the half-inhibitory concentration (IC50) in test [1] turned out to be 0.0123 µg/mL; in the test on Plasmodium falciparum K1 it was 0.0125 µg/mL. Further, the inhibition in vivo at 10 mg/kg with Plasmodium berghei (setting [2]) came out at 98%; in the test with Plasmodium berghei (setting [3]), 97%. Moreover, the Resistance index in the test with Plasmodium falciparum K1 is given as 1.0.

Consider `CC(C)(CNc1ccnc2cc(Cl)ccc12)NCc1ccnc2ccccc12.Cl.Cl.Cl` [Example 58, N1-(7-Chloro-quinolin-4-yl)-N2-(quinolin-4-yl-methyl)-2-methyl-propane-1,2-diamine trihydrochloride], for which the IC50 in test [1] amounted to 0.0293 µg/mL; in the test with Plasmodium falciparum K1, 0.069 µg/mL. Further, the figures for the inhibition in vivo at 10 mg/kg in the test on Plasmodium berghei (setting [2]) and with Plasmodium berghei (setting [3]) were 72% and 88%, respectively. Moreover, the Resistance index with Plasmodium falciparum K1 is 2.4.

Turning to `Cl.Cl.Clc1ccc2c(N[C@H]3CC[C@H](NCCc4ccccc4)CC3)ccnc2c1` [Example 89, trans-N1-(7-Chloro-quinolin-4-yl)-N4-phenethyl-cyclohexane-1,4-diamine dihydrochloride], the IC50 in test [1] is 0.0022 µg/mL; in the test with Plasmodium falciparum K1, 0.0175 µg/mL. Moreover, the inhibition in vivo at 10 mg/kg is 99.8% in the test on Plasmodium berghei (setting [2]) and 99.9% in the test on Plasmodium berghei (setting [3]). In addition, the Resistance index with Plasmodium falciparum K1 came to 8.0.

As to `CC(C)(CNc1ccnc2cc(Cl)ccc12)NCc1cc(Cl)cc(Cl)c1.Cl.Cl` [Example 23, N1-(7-Chloro-quinolin-4-yl)-N2-(3,5-dichloro-benzyl)-2-methylpropane-1,2-diamine dihydrochloride], the values for the IC50 (in test [1]; in the test with Plasmodium falciparum K1) were 0.0296 µg/mL and 0.0325 µg/mL, respectively. The inhibition in vivo at 10 mg/kg in the test with Plasmodium berghei (setting [2]) came out at 97%; with Plasmodium berghei (setting [3]), 98%. The Resistance index in the test on Plasmodium falciparum K1 turned out to be 1.1.

`CC(=O)O.CC(=O)O.CC(C)(CNc1ccnc2cc(Cl)ccc12)NCc1ccccc1O` [Example 28, N1-(7-Chloro-quinolin-4-yl)-N2-(2-hydroxybenzyl)-2-methyl-propane-1,2-diamine diacetate]: the IC50 in test [1] was 0.004 µg/mL; with Plasmodium falciparum K1 it was 0.0107 µg/mL. Moreover, the inhibition in vivo at 10 mg/kg in the test on Plasmodium berghei (setting [2]) is 79%; with Plasmodium berghei (setting [3]), 96%. Besides, the Resistance index in the test on Plasmodium falciparum K1 turned out to be 2.7.

As for `COc1ccc(O)c(CN[C@H]2CC[C@@H](Nc3ccnc4cc(Cl)ccc34)CC2)c1.Cl.Cl` [Example 80, cis-N1-(7-Chloro-quinolin-4-yl)-N4-(2-hydroxy-5-methoxy-benzyl)-cyclohexane-1,4-diamine dihydrochloride], the IC50 in test [1] stood at 0.0089 µg/mL; in the test with Plasmodium falciparum K1 it was 0.0184 µg/mL. For the same compound, the inhibition in vivo at 10 mg/kg with Plasmodium berghei (setting [2]) came out at 99.9%; in the test with Plasmodium berghei (setting [3]), 100%. Also, in the test with Plasmodium falciparum K1, the Resistance index was 2.1.

As for `Cl.Cl.Clc1ccc2c(N[C@H]3CC[C@@H](NCc4ccc(-c5ccccc5)cc4)CC3)ccnc2c1` [Example 87, cis-N1-(7-Chloro-quinolin-4-yl)-N4-(biphenyl-4-yl-methyl)-cyclohexane-1,4-diamine dihydrochloride], the IC50 in test [1] amounted to 0.0062 µg/mL; in the test on Plasmodium falciparum K1 it was 0.0102 µg/mL. Further, the inhibition in vivo at 10 mg/kg was found to be 98% in the test with Plasmodium berghei (setting [2]) and 94% in the test on Plasmodium berghei (setting [3]). In the test on Plasmodium falciparum K1, the Resistance index is on record as 1.6.

Regarding `COc1ccccc1CNC(C)(C)CNc1ccnc2cc(Cl)ccc12.Cl.Cl` [Example 34, N1-(7-Chloro-quinolin-4-yl)-N2-(2-methoxy-benzyl)-2-methyl-propane-1,2-diamine dihydrochloride], the IC50 in test [1] amounted to 0.0072 µg/mL. In the test on Plasmodium falciparum K1, the IC50 was 0.015 µg/mL and the Resistance index was determined as 2.1.
